Experiment [1] deals with T1, recombinant human adrenergic beta 1 receptors (Homo sapiens, UniProt P08588).
T1 construct: purchased Euroscreen
The experiment in a line: Adrenergic β1 [125I]-Iodocyanopindolol binding. The settings on record: inhibition of [125I]-Iodocyanopindolol binding (0.036 nM); read-out: β1 bind p IC50 (converted). The method, then: Membranes containing recombinant human adrenergic beta 1 receptors were obtained from Euroscreen. These were diluted in Assay Buffer (50 mM HEPES, 1 mM EDTA, 120 mM NaCl, 0.1% gelatin, pH 7.4) to provide a final concentration of membranes that gave a clear window between maximum and minimum specific binding.
Assays were performed in U-bottomed 96-well polypropylene plates. 10 μL [^125I]-Iodocyanopindolol (0.036 nM final concentration) and 10 μL of test compound (10× final concentration) were added to each test well. For each assay plate 8 replicates were obtained for [^125I]-Iodocyanopindolol binding in the presence of 10 μL vehicle (10% (v/v) DMSO in Assay Buffer; defining maximum binding) or 10 μL Propranolol (10 μM final is concentration; defining non-specific binding (NSB)). Membranes were then added to achieve a final volume of 100 μL. […] Five washes with 250 μL wash buffer (50 mM HEPES, 1 mM EDTA, 120 mM NaCl, pH 7.4) were performed at 4° C. to remove unbound radioactivity. […] The plates were sealed (TopSeal A) and filter-bound radioactivity was measured with a scintillation counter (TopCount, Packard BioScience) using a 3-minute counting protocol.
(§1) Total specific binding (B0) was determined by subtracting the mean NSB from the mean maximum binding. […]

Experiment [2] has as its target T2, recombinant human Dopamine Subtype D2s receptors (Homo sapiens, UniProt P14416).
T2 construct: purchased Perkin Elmer
Briefly: Dopamine D2 [3H]-spiperone binding. The settings on record: inhibition of [3H]-spiperone binding (0.16 nM); read-out: D2 bind pIC50 (converted). On the procedure:
Membranes containing recombinant human Dopamine Subtype D2s receptors were obtained from Perkin Elmer. These were diluted in Assay Buffer (50 mM HEPES, 1 mM EDTA, 120 mM NaCl, 0.1% gelatin, pH 7.4) to provide a final concentration of membranes that gave a clear window between maximum and minimum specific binding.
Assays were performed in U-bottomed 96-well polypropylene plates. 30 μL [^3H]-spiperone (0.16 nM final concentration) and 30 μL of test compound (10× final concentration) were added to each test well. For each assay plate 8 replicates were obtained for [^3H]-spiperone binding in the presence of 30 μL vehicle (10% (v/v) DMSO in Assay Buffer; defining maximum binding) or 30 μL Haloperidol (10 μM final concentration; defining non-specific binding (NSB)). Membranes were then added to achieve a final volume of 300 μL. […] Five washes with 250 μL wash buffer (50 mM HEPES, 1 mM EDTA, 120 mM NaCl, pH 7.4) were performed at 4° C. to remove unbound radioactivity. […] The plates were sealed (TopSeal A) and filter-bound radioactivity was measured with a scintillation counter (TopCount, Packard BioScience) using a 3-minute counting protocol.
as §1

T2 sequence (P14416 1-414 isoform P14416-2): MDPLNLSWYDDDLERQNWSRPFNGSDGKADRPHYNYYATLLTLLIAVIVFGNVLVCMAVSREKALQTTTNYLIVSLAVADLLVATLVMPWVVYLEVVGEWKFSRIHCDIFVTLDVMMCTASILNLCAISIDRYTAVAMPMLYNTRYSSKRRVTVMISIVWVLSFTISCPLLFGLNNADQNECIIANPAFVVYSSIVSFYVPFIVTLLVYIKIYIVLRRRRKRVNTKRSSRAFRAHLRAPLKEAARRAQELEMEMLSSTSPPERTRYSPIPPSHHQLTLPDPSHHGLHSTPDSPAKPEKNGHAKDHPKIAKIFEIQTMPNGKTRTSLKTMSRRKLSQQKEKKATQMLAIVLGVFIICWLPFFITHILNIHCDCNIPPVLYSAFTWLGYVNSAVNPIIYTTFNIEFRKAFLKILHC
T1 sequence (P08588 whole entry): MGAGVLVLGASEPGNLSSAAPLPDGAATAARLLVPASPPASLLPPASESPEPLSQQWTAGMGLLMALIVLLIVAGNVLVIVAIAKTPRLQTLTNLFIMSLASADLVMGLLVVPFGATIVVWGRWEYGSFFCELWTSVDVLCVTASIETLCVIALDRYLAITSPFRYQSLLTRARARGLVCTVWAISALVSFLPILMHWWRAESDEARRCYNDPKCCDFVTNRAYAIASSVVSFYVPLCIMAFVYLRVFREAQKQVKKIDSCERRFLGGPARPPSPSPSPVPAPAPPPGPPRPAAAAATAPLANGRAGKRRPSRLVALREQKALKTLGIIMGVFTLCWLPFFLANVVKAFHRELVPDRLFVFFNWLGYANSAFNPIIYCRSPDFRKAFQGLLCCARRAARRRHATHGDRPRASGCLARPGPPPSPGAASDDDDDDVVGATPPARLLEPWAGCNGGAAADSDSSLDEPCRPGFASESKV

For the compound `CCCCC[C@@H](C)N(CCNCCc1ccc(O)c2c1OCC(=O)N2)C(=O)CCNCCc1ccccc1` [Example 60, (R)—N-(Heptan-2-yl)-N-(2-(2-(5-hydroxy-3-oxo-3,4-dihydro-2H-benzo[b][1,4]oxazin-8-yl)ethylamino)ethyl)-3-(phenethylamino)propanamide bis(trifluoroacetate)], the IC50 is 2510 nM in experiment [1] and 50.1 nM in experiment [2].

These data come from patent publication US20120142646A1, “Novel Compounds 621” (priority 2006, published 2012).
